Key:
[1] = test system: HLA-DRα mRNA; experiment: HLA-DRα mRNA by standard PCR and real-time PCR in human cell lines JAR and SK-N-MC; type: cell-based; details: for fold increase in expression of DR: MC cells, real time PCR, 100 nM TSA 24 hr, NaBu 1 mM 48 hr, IFNγ any concentration or time point; for levels of mRNA for HLA-DRα (DR): SK-N-MC, RT-PCR, 100 nM TSA 24 hours, 1 mM NaBu 48 hours, IFNγ
[2] = test system: CD40 mRNA; experiment: CD40 mRNA by real-time PCR in Colon 26 and J558; type: cell-based, mouse
Experimental: In order to obtain more quantitative information on fold changes in DR and CIITA after treatment with the deacetylase inhibitors, a real time fluorescence technique capable of quantitating low copy numbers of transcripts was carried out as follows. Oligonucleotide primers and TaqMan 5′-6-FAM and 3′-TAMRA-labeled probes were synthesized in the RPCI Biopolymer Facility. Primer and probe sequences are listed under Sequence Listing and also in FIG. 9. Sequences were designed using standard software (PrimerExpress software, PE Biosystems) except for human GAPDH.
Realtime PCR reactions contained TaqMan Universal PCR Master Mix (PE Biosystems), primers at 300 nM, and probes at optimal concentrations (150-225 nM depending on gene). Reactions were carried out on an ABI PRISM 7700 Sequence Detection System (PE Biosystems). Cycling conditions were 50° C. for 2 min, 95° C. for 10 min, then 60 cycles of 95° C. for 15 sec, 60° C. for 1 min. PCR samples were run in triplicate. The detection system and quantitative PCR was carried out as described by Williamson et al. (1995, Genet Res. 65:83-93). The threshold cycle number CT corresponded to the cycle number, at which the fluorescent emission reaches 10 standard deviations above the mean fluorescent emission, measured during the early ‘baseline’ cycles of the PCR. The CT values for triplicates were averaged and normalized to GAPDH levels. […] In such cases, in order to calculate a minimum fold change for other samples in the same group, the CT value was arbitrarily set at 40. […] Assuming reverse transcription efficiencies were approximately the same for each sample, relative amounts of mRNA using the comparative CT method. Fold changes in mRNA levels were calculated as 2^x where x=the difference between normalized CT values of the control and experimental samples.
This embodiment illustrates the effect of DAIs on costimulatory molecules. Because of the importance of costimulatory molecules in the cellular activation mechanism involving MHC complexes, the effect of DAIs on the expression of B7-1, B7-2 and CD40 genes was investigated by real-time PCR as well as RT-PCR. While no consistent changes in B7-1 and B7-2 were detected (data not shown), CD40 expression was enhanced by TSA in all three cell types (FIGS. 7A, B, C). MC cells constitutively expressed low levels of CD40 and IFNγ enhanced CD40 mRNA levels 5-fold while TSA elicited a 12-fold increase at 24 hours (FIG. 7A). […] GADPH mRNA remained essentially unchanged with both the primer sites used in RT-PCR and real-time PCR. The lack of induction of CD40 by IFNγ in J558 cells is consistent with the failure of IFNγ to activate other IFNγ inducible genes.

[3] = test system: CD40; experiment: Cell surface CD40 by flow cytometry on Colon 26 and J558; type: cell-based, mouse
Experimental: To determine the effect of TSA on cell surface protein expression, the J558 cell line was subjected to flow cytometric analyses as follows. Flow cytometric analyses were conducted by standard methods using cells fixed with 1.0% paraformaldehyde and analyzed on the FACScan (Becton Dickinson). Cell cycle analyses were carried out by flow cytometry with PI staining of genomic DNA. Cells were fixed and permeablized in methanol, treated with RNaseA and analyzed for DNA content by determination of FL3-area on the FACScan. The FL3-area data were analyzed with the ModFit software for determination of the percent cells in each phase of the cell cycle. In some cases, fluorescein isothiocyanate (FITC)-conjugated antibody staining was conducted prior to PI treatment and surface staining was analyzed as a function of cell cycle phase. Apoptosis was analyzed by staining with annexin-V directly conjugated with either FITC or RPE and by sub-G0 analysis of DNA staining. […] Isotype controls were analyzed and, in each case, fell on or below the levels shown for control cells. […] Since all cells were positive for MHC class I expression, the number under the histogram represents -fold change of expression calculated from the mean channel-shift after treatment relative to untreated cells. […]

[4] = test system: CD40 mRNA; experiment: CD40 mRNA by real-time PCR in SK-N-MC; type: cell-based, human; details: MC cells, at 24 hours
[5] = Colon 26, 60 cycles, 100 U/ml IFNγ for 24 hours, TSA (12 and 48 hours)
[6] = J558, TSA 25 nM for 24 hours, IFNγ

| Compound | fold increase in expression of DR [1] | levels of mRNA for HLA-DRα (DR) [1] | CD40 mRNA fold increase [2, 5] | CD40 mRNA fold increase [2, 6] | expression of CD40 on cell surface ([3]; Colon 26 and J558, flow cytometry) | CD40 mRNA fold increase [4] [fold] | mean channel fluorescence difference between control and IFNγ curves, CD40 ([3]; J558, IFNγ 100 U/ml 24 hours, not seen on independent replicates) |
| --- | --- | --- | --- | --- | --- | --- | --- |
| CC(/C=C/C(=O)NO)=C\[C@@H](C)C(=O)c1ccc(N(C)C)cc1 [TSA, Trichostatin A] | 108 fold | substantial increase | 147 fold | 161 fold | induced expression | 12 | – |
| IFNγ: gamma-interferon, cytokine used as comparator at 100 U/ml | did not stimulate | cannot be induced | undetectable | did not change | – | 5 | 1.3 |
